In paper PMC4858680, “A platinum-based hybrid drug design approach to circumvent acquired resistance to molecular targeted tyrosine kinase inhibitors” (Scientific Reports, 2016):
Residue numbers refer to the chain shown, from its start.

Columns and labels:
[1] = Drug accumulation in organs of BALB/c mice; format: in vivo; details: intravenous 12.5 mg/kg, 30 min
[2] = molecular target: ABL1(E255K)-phosphorylated (Homo sapiens, UniProt P00519, E255K); details: 10 μM
[3] = molecular target: ABL1(H396P)-nonphosphorylated (Homo sapiens, UniProt P00519, H396P); details: 10 μM
[4] = molecular target: ABL1(M351T)-phosphorylated (Homo sapiens, UniProt P00519, M351T); details: 10 μM
EGFR = EGFR (Homo sapiens, UniProt P00533); details: 10 μM
Chain of EGFR (P00533 25-1210): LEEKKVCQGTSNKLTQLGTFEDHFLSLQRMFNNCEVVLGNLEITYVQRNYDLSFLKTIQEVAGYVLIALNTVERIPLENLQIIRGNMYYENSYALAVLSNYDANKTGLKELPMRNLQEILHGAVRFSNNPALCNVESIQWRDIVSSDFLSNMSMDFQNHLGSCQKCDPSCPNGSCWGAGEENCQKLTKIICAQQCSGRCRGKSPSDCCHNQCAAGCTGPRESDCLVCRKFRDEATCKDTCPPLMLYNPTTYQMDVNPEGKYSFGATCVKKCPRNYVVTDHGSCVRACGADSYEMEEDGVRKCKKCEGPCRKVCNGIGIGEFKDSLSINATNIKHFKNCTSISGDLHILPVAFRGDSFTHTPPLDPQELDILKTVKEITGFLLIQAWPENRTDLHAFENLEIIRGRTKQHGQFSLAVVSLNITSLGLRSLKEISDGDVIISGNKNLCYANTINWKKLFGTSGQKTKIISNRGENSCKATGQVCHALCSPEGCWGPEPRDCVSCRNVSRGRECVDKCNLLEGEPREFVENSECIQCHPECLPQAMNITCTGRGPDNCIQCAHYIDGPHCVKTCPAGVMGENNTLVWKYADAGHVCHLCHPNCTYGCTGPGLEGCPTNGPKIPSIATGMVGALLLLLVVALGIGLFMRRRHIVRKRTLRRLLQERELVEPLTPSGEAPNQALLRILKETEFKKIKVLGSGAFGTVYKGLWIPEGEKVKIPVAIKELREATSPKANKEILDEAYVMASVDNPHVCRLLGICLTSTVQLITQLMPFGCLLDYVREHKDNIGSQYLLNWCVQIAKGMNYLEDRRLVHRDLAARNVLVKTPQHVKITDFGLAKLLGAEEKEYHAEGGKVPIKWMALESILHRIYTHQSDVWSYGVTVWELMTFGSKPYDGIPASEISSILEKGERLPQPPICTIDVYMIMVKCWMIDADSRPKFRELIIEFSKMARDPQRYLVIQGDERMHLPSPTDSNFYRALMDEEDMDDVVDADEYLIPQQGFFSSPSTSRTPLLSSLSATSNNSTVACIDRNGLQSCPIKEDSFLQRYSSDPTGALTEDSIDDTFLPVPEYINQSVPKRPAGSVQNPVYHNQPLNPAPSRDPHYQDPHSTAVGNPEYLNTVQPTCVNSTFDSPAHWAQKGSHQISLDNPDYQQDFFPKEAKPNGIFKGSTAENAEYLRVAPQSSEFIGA

FLT3(D835Y) = molecular target: T1, FLT3(D835Y) (Homo sapiens, UniProt P36888, D835Y); test: biochemical; details: read-out: Percent control
T1 sequence (P36888 27-993 D835Y): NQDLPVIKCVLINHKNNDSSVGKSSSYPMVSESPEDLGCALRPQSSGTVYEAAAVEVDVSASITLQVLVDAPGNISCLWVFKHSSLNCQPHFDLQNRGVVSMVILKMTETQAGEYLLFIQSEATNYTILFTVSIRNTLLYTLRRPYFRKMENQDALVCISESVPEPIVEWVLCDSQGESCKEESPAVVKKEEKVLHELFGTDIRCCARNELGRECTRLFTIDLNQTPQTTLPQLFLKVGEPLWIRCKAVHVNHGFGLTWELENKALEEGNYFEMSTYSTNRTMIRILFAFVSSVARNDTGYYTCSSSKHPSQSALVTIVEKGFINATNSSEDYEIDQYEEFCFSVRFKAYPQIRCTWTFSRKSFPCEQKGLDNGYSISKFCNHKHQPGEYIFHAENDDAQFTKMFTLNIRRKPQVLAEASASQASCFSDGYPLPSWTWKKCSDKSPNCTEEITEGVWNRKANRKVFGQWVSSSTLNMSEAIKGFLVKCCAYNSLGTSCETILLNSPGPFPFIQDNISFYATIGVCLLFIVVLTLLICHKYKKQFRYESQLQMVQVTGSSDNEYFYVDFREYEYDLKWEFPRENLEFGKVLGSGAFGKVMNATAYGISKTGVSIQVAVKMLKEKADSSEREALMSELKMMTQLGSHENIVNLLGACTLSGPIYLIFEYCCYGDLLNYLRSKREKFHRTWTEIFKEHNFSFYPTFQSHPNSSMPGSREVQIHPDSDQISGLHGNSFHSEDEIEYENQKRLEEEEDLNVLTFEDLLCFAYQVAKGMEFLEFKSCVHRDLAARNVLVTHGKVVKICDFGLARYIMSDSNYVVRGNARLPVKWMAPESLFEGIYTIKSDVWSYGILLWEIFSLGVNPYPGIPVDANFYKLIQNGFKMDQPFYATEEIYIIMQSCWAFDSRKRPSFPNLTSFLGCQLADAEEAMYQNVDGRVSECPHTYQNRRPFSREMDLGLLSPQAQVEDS

[5] = molecular target: ABL1(F317I)-phosphorylated (Homo sapiens, UniProt P00519, F317I); test: biochemical; details: read-out: Percent control
ABL1-nonphosphorylated = ABL1-nonphosphorylated (Homo sapiens, UniProt P00519); test: biochemical; details: read-out: Percent control
FLT3(N841I) = molecular target: T2, FLT3(N841I) (Homo sapiens, UniProt P36888, N841I); test: biochemical; details: read-out: Percent control
T2 sequence (P36888 27-993 N841I): T1 sequence (P36888 27-993 D835Y) with Y809D, N815I

For `C#Cc1cccc(Nc2c3cc(OCCOC)c(OCCOC)cc3nc[n+]2[Pt@SP2-2]([NH3+])([NH3+])[Cl])c1` [2a, cisplatin-erlotinib], the “brain accumulation, times higher than that of cisplatin” value [1] was 7 times, the “brain accumulation, times higher than that of erlotinib” value [1] was greater than 3 times and the Percent control [2] was 9.9%. It also gave a Percent control [3] of 0.9% and a Percent control [4] of 15%.
Work on `Cc1ccc(NC(=O)c2ccc(CN3CCN(C)CC3)cc2)cc1Nc1nccc(-c2cccnc2)[n+]1[Pt-2]1([Cl])[NH2+]C2CCCCC2[NH2+]1` (stereo not shown) [1b, oxaliplatin-imatinib] yielded a Percent control (EGFR) of 89%.
`COc1cc2c(Nc3ccc(Br)cc3F)ncnc2cc1OCC1CCN(C)CC1` [Vandetanib, reference compound] gave a remaining activity at 10 µM (FLT3(D835Y)) of 7.7%.
`C#Cc1cccc(Nc2ncnc3cc(OCCOC)c(OCCOC)cc23)c1` [Erlotinib] gave a remaining activity at 10 µM [5] of 9.9%, a remaining activity at 10 µM (ABL1-nonphosphorylated) of 3.2% and a remaining activity at 10 µM (FLT3(N841I)) of 4.8%.
